Experimental data published in patent publication US20250163057A1, “DCN-1 MODULATING COMPOUNDS AND METHODS OF USE THEREOF” (Cellarity, Inc., priority 2023, published 2025).
Where two headings read alike, the source gives them in different places.

Legend:
[1] = tested on: fetal hemoglobin gene HBG1; assay: HBG1 Nanostring Assay in CD34+ HSPC erythroid differentiation culture; format: cell-based, human; settings: for EC50: HBG1 induction, Day10 of erythroid differentiation; for Nanostring Ymax obs (%): relative to a control compound (C1)
Description: A Nanostring Assay was performed to evaluate the ability of the compounds to induce expression of the fetal hemoglobin gene HBG1 in cells. The data are shown as EC50, with stronger inducers having a lower EC50 value and higher YMax.
Forty eight hours later (day −2), the cells were passaged at a density of 200,000 cells/ml (100 ul/well in 96well culture plate) in complete expantion media. The cells were plated at 200,000 cells/ml on day 0 and day 3, 400,000 cells/ml on day 5 in phase 1 erythroid differentiation containing StemSpan with 2.5 U/mL of EPO (R&D systems, 287-TC-500), 0.5 mg/mL of Holo-Transferrin (Sigma, T0665-500MG), 1× Glutamine (Gluta-Max) (Gibco, 35050-061), 5 μL/mL Lipid Mixture (Sigma, L0288-100ML), 50 ng/mL SCF (R&D Systems, 255-SV-050), 10 ng/mL IL-3 (R&D Systems, 203-IL010) and 10 ng/mL Insulin (Sigma, I9278-5ML) all 200 μl per well in 96 well culture plate. Cells were then passaged at 500,000 cells/ml and 200 μl per well on day 7 in phase 2 Erythroid differentiation (Phase 1 erythroid differentiation removing IL-3) until collection day (Day10). The culture conditions were used for both control DMSO as well as experimental treatments.
For all cell pasagings, cells were centrifuged at 300 g for 8 minutes at room temperature and cell number were normalized by MANTIS and Integra VIAFLO 384. All the compounds are diluted in DMSO and added to complete media by Formulatrix FAST and mixed starting from day −2. Cells were counted by Luna cell counter with AOPI Staining Solution (Nexcelom Bioscience, CS2-0106-25 mL) on day-2. Cells were counted by BD FACSCelesta Flow Cytometer with CountBright™ Plus Absolute Counting Beads (Thermal Fisher Scientific, C36995) and SYTOX AADvanced™ Ready Flow™ Reagent (Invitrogen, R37173) for other passages. Cells were cultured at 37° C. and 5% CO2. DMSO concentration was kept at 0.1% to minimize any effects to the cells by the vehicle. […] Compound plates were kept at room temperature to protect from light to avoid multiple freeze and thaw cycle.
On the collection day (Day10), 100K cells were collected and stored at −80° C. For direct hybridization for Nanostring, 100K cell pellet was lyzed in 25 μL of RLT (QIAGEN, 79216) with 1×β-Mercaptoethanol (Gibco, 21985-023) and shaked at 300-500 RPM for 5 minutes at room temperature. Cell lysate was stored in −80° C. after lysis.
All hybridizations were done in a total volume of 15 μL (3 μL of RNA lysate added to master mix of 12 μL probe A/B, capture probe/reporter probes, proteinase K and attenuation oligos suspended in hybridization buffer). Samples were hybridized at 67° C. for 22 hr. Following hybridization, the tripartide complexes were purified, immobilized by nCounter Prep Station and imaged by Digital Analyzer (nCounter MAX/FLEX Analysis System), to generate digital counts of barcodes corresponding to each target in the multiplexed reaction. Labeled barcodes obtained from unamplified extracts were counted at 555 images or field of view (FOV). The barcode counts for each sample were recorded in Reporter Code Count (RCC) files that are imported into nSolver analysis software (provided with CodeSet by NS) for quality control evaluation.
The quality control (QC) metric included limit of detection QC by checking for wells with less than 100 total counts for positive controls.
Hybridization signals were normalized against the ERCC positive controls and CodeSet Content (housekeeping gene). Briefly, this involved first calculating a sample-specific scaling factor by calculating arithmetic mean of geomeans of all ERCC positive controls with counts more than zero in all samples. Then this arithmetic mean was divided by the geometric mean of each lane to generate a lane-specific normalization factor. All negative controls and target-specific signal values were then normalized by multiplying counts values with their sample-specific scaling factor. The acceptable range for scaling factors is 0.3-3.0. […]

[2] = target: DCN1 (DCUND1) protein PONY domain (Homo sapiens (Human), UniProt Q96GG9); assay: TR-FRET assay, DCN1 binding with FAM-labeled probe
Method in brief: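 Binding was read as the TR-FRET ratio between a FAM-tagged inhibitor probe and Tb-labeled biotinylated E. coli-expressed DCN1 PONY domain, measured 1, 5 and 24 h after compound addition. The two setups used 5 nM protein/20 nM FAM-probe or 0.31 nM protein/900 nM total probe (100 nM labeled), in TritonX buffer with 200 mM NaCl.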

[3] = target: DCN1 protein (Homo sapiens (Human), UniProt Q96GG9); assay: Intact Protein MS Analysis with the RapidFire-TOF System (covalent adduct formation); format: binding; settings: MS Emax; 400 nM DCN1, 3 hours at room temperature
Method in brief: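 Tag-cleaved human DCN1 (400 nM) expressed in E. coli, in 25 mM Tris-HCl, 200 mM NaCl, 1 mM DTT, was incubated with 11 compound concentrations for 3 h at room temperature and quenched with 0.2% formic acid. Intact-protein Q-TOF MS with deconvolution detected the compound adduct mass.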

[4] = tested on: Cullin-3 (CUL3) neddylation; assay: AlphaLISA assay for Cullin-3 (CUL3) neddylation in TF 1 cells; format: cell-based; settings: 3 hours treatment
Method in brief: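 TF 1 cells in unsupplemented IMDM treated with compound concentrations for 3 h, then lysed. CUL3 neddylation detected by AlphaLISA (biotinylated anti-NEDD8, anti-CUL3 acceptor beads overnight, streptavidin donor beads 1 h); normalized to vehicle (0%) and 1 μM DI-1548 (100%), IC50 from Hill fits.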

[5] = 24 hr after treatment with compound, read-out: TR FRET IC50 24 hr
[6] = TR FRET IC50 1 hr (nM), 1 hr after treatment with compound

Sequence of DCN1 protein (Q96GG9 whole entry): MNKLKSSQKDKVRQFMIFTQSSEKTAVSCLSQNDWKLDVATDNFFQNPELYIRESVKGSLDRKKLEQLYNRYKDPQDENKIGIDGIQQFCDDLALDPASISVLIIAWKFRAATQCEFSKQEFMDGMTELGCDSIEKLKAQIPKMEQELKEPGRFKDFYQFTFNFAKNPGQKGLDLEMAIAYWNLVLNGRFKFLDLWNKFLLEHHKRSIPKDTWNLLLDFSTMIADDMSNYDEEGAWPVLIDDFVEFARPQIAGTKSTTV
Sequence of DCN1 (DCUND1) protein PONY domain (Q96GG9 60-248): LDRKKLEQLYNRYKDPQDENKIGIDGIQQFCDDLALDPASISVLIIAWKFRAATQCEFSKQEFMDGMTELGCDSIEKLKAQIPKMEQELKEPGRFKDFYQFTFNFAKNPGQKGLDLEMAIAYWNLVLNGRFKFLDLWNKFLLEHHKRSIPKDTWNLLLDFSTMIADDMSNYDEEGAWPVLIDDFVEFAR

SMILES	EC50 ([1]; Homo sapiens, 240 h) [µM]	Nanostring Ymax obs (%) [1]	IC50 [2, 5] [nM]	IC50 ([2]; read-out: TR FRET IC50 1 hr, 1 hr after treatment with compound) [nM]	% Adduct Formation [3]	EC50 [1] [µM]	IC50 [4] [µM]	IC50 [2, 6] [nM]
CCN1C(=O)[C@@H](NC(=O)c2cccc(C(F)(F)F)c2)[C@@H](c2ccc(F)cc2)c2c(C(=O)N3CC[C@@H](C#N)C3)nn(-c3ccccc3)c21 (mixture of isomers) [Compound I-60]	> 1	++ (Nanostring Ymax greater than 50.0 and less than or equal to 100.0)	200 to 1000	≤ 200	+ (MS Emax % adduct formation greater than or equal to 0.0 and less than or equal to 30.0)	–	–	–
CCN1C(=O)[C@@H](NC(=O)c2cccc(C(F)(F)F)c2)[C@@H](c2ccc(F)cc2)c2c([C@@H](C)NC#N)nn(-c3ccccc3)c21 (mixture of isomers) [Compound I-167]	–	++ (Nanostring Ymax greater than 50.0 and less than or equal to 100.0)	–	–	+++ (MS Emax % adduct formation greater than 80.0 and less than or equal to 100.0)	0.1 to 1	≤ 0.1	–
CCN1C(=O)[C@@H](NC(=O)c2cccc(C(F)(F)F)c2)[C@@H](c2ccc(F)cc2)c2c(CCNC#N)nn(-c3ccccc3)c21 (racemic) [Compound I-10, rac-N-((4R,5R)-3-(2-cyanamidoethyl)-7-ethyl-4-(4-fluorophenyl)-6-oxo-1-phenyl-4,5,6,7-tetrahydro-1H-pyrazolo[3,4-b]pyridin-5-yl)-3-(trifluoromethyl)benzamide]	0.1 to 1	++ (Nanostring Ymax greater than 50.0 and less than or equal to 100.0)	≤ 200	–	++ (MS Emax % adduct formation greater than 30.0 and less than or equal to 80.0)	–	–	200 to 1000
CCN1C(=O)[C@@H](NC(=O)c2cccc(C(F)(F)F)c2)[C@@H](c2ccc(F)cc2)c2c(C/C=C/C(=O)NC)nn(-c3ccccc3)c21 (racemic) [Compound I-38]	> 1	+ (Nanostring Ymax greater than or equal to 0.0 and less than or equal to 50.0)	1000 to 3000	–	+ (MS Emax % adduct formation greater than or equal to 0.0 and less than or equal to 30.0)	–	–	1000 to 3000
CCN1C(=O)[C@@H](NC(=O)c2cccc(C(F)(F)F)c2)[C@@H](c2ccc(F)cc2)c2c(NC(=O)C3(C#N)CCOCC3)nn(-c3ccccc3)c21 (racemic) [Compound I-66]	> 1	+ (Nanostring Ymax greater than or equal to 0.0 and less than or equal to 50.0)	200 to 1000	–	+ (MS Emax % adduct formation greater than or equal to 0.0 and less than or equal to 30.0)	–	–	–
C=C(CN1CCC(F)(F)C1)C(=O)NCc1nn(-c2ccccc2)c2c1[C@H](c1ccc(F)cc1)[C@H](NC(=O)c1cccc(C(F)(F)F)c1)C(=O)N2CC (racemic) [Compound I-72]	0.1 to 1	++ (Nanostring Ymax greater than 50.0 and less than or equal to 100.0)	200 to 1000	–	+ (MS Emax % adduct formation greater than or equal to 0.0 and less than or equal to 30.0)	–	–	200 to 1000
CCN1C(=O)[C@@H](NC(=O)c2cccc(C(F)(F)F)c2)[C@@H](c2ccc(F)cc2)c2c(C3(NC#N)CC3)nn(-c3ccccc3)c21 (racemic) [Compound I-87]	0.1 to 1	++ (Nanostring Ymax greater than 50.0 and less than or equal to 100.0)	≤ 200	–	+++ (MS Emax % adduct formation greater than 80.0 and less than or equal to 100.0)	–	–	200 to 1000
C=C(CO)C(=O)NCc1nn(-c2ccccc2)c2c1[C@H](c1ccc(F)cc1)[C@H](NC(=O)c1cccc(C(F)(F)F)c1)C(=O)N2CC (racemic) [Compound I-116, rac-N-((4R,5R)-7-ethyl-4-(4-fluorophenyl)-3-((2-(hydroxymethyl)acrylamido)methyl)-6-oxo-1-phenyl-4,5,6,7-tetrahydro-1H-pyrazolo[3,4-b]pyridin-5-yl)-3-(trifluoromethyl)benzamide]	> 1	+ (Nanostring Ymax greater than or equal to 0.0 and less than or equal to 50.0)	200 to 1000	–	+ (MS Emax % adduct formation greater than or equal to 0.0 and less than or equal to 30.0)	–	–	200 to 1000
CCN1C(=O)[C@@H](NC(=O)c2cccc(C(F)(F)F)c2)[C@H](c2ccc(F)cc2)c2c(CN(C)C(=O)/C=C/C(=O)OC)nn(-c3ccccc3)c21 (racemic) [Compound I-141, methyl (˜{E})-4-[[(4˜{S},5˜{S})-7-ethyl-4-(4-fluorophenyl)-6-oxo-1-phenyl-5-[[3-(trifluoromethyl)benzoyl]amino]-4,5-dihydropyrazolo[3,4-b]pyridine-3-yl]methyl-methyl-amino]-4-oxo-but-2-enoate]	> 1	++ (Nanostring Ymax greater than 50.0 and less than or equal to 100.0)	–	–	+ (MS Emax % adduct formation greater than or equal to 0.0 and less than or equal to 30.0)	–	–	200 to 1000
CCN1C(=O)[C@@H](NC(=O)c2cccc(C(F)(F)F)c2)[C@@H](c2ccc(F)cc2)c2c(CCN(C)C#N)nn(-c3ccccc3)c21 (racemic) [Compound I-151, rac-N-((4R,5R)-7-ethyl-4-(4-fluorophenyl)-3-(2-(N-methylcyanamido)ethyl)-6-oxo-1-phenyl-4,5,6,7-tetrahydro-1H-pyrazolo[3,4-b]pyridin-5-yl)-3-(trifluoromethyl)benzamide]	> 1	++ (Nanostring Ymax greater than 50.0 and less than or equal to 100.0)	≤ 200	–	+++ (MS Emax % adduct formation greater than 80.0 and less than or equal to 100.0)	–	–	200 to 1000
CCN1C(=O)[C@@H](NC(=O)c2cccc(C(F)(F)F)c2)[C@@H](c2ccc(F)cc2)c2c(CNC(=O)C3=C(C(=O)OC)CC3)nn(-c3ccccc3)c21 [Compound I-119]	0.1 to 1	++ (Nanostring Ymax greater than 50.0 and less than or equal to 100.0)	200 to 1000	–	+ (MS Emax % adduct formation greater than or equal to 0.0 and less than or equal to 30.0)	–	–	200 to 1000
